Assay results as given in publication PMC8196714, “Design, Radiosynthesis and Preliminary Biological Evaluation in Mice of a Brain-Penetrant ^18F-Labelled σ2 Receptor Ligand” (International Journal of Molecular Sciences, 2021).

Experiments:
[1] = Quantification of radiometabolites in mouse tissues at 30 min p.i.; format: in vivo, CD-1 mice
Method: From quantitative analysis of the radio-chromatograms, which indicated the presence of solely [^18F]RM273 (>99%; n = 3; Supplemental Information Table S1 and Figure S2), we concluded that upon the presence of an intact BBB, the PET image derived from [^18F]RM273 in the brain was not affected by confounding radiometabolites.
About 30 MBq [^18F]RM273 dissolved in about 150 µL isotonic saline was administered intravenously as a bolus in the tail vein of in awake female CD-1 mice weighing about 33 g (n = 3). At 30 min p.i., the animals were anesthetized and blood was withdrawn by retrobulbar bleeding using glass capillaries. Immediately afterwards, the animals were euthanized by cervical dislocation, and released urine sampled. Blood plasma was obtained from the whole blood sample by centrifugation (2 min, 8000 rpm, room temperature). In addition, the brain, the liver, and the pancreas were isolated and homogenized in 1 mL demineralized water on ice (1000 rpm, 10 strokes; glass vessel, PTFE plunger; Potter S, B. Braun Biotech International, Goettingen, Germany). Bone marrow (n = 2) was isolated by flushing the femur with about 200 µL isotonic saline.
The samples were further processed for subsequent radio-chromatographic analyses. Two consecutive extractions were performed as duplicate for plasma and brain determinations. Plasma and brain samples were added to an ice-cold MeOH/H2O mixture (9:1, v/v). The samples were vortexed for 3 min, incubated on ice for 5 min, and centrifuged at 12,000 rpm for 5 min. Supernatants were collected, the precipitates were re-dissolved in 100 µL of extraction solvent, and the extraction procedure was repeated. The activities of supernatants and precipitates were measured in a γ-counter (1480 WIZARD, Fa. Perkin Elmer), and the extraction efficiencies were calculated as ratio of the radioactivity in the supernatant to the radioactivity in the original sample (supernatant + precipitate). The supernatants from both extractions were combined, concentrated at 70 °C under argon stream up to a remaining volume of 100 µL, and subsequently analyzed by analytical radio-HPLC with a gradient system as applied in Section 5.2.2.
3. Quantification of radiometabolites in mouse
Table 1. Radiometabolite analysis of [18F]RM273 in different tissues 30 min p.i.
Experiment 1 Experiment 2
Extraction Intact Extraction Intact Extraction Intact efficiency tracer efficiency tracer (%) efficiency tracer
Figure 2. Representative radio-HPLC chromatograms of the metabolism studies of [18F]RM273 in different tissues obtained at 30 min p.i.. (A) Brain, (B) Plasma, (C) Pancreas, (D)
Liver and (E) Bone marrow. Conditions:
Reprosil-Pur C18-AQ (250 x 4.6 mm; 5 μm); gradient (eluent A 10% MeCN/20 mM
NH4OAcaq.; eluent B 90 % MeCN/20 mM
(1 picture or pasted object on this page, not shown here)

[2] = Dynamic PET imaging in CD1 mice; format: in vivo; conditions: i.v.
Method: As expected by the optimal lipophilicity of [^18F]RM273 (see 2.3, [43]) the PET images and the time–activity curve obtained for the whole brain shown in Figure 6 indicate a fast permeation of the BBB with a mean standardized uptake value (SUV) of 1.3 ± 0.4 at 2.25 min p.i. (n = 4).
The biodistribution of [^18F]RM273 in mice was assessed by dynamic small animal PET (Nanoscan, Mediso, Budapest, Hungary) 60 min recordings, followed by T1 weighted (GRE, TR/TE = 15.0/2.4 ms, 252/252, FA = 25°) imaging for anatomical correlation and attenuation correction. The mice weighing 31.7 ± 3.8 g were anaesthetized with 2% isoflurane in 60% oxygen and placed on a thermostatically heated animal bed. [^18F]RM273 (7.2 ± 1.1 MBq) was injected i.v. into the lateral tail vein (bolus within 5 s) at the start of the PET-acquisition. List mode PET data were binned as a series of attenuation-corrected sinogram frames (12 × 10 s, 6 × 30 s, 5 × 60 s and 10 × 300 s) and were reconstructed by Ordered Subset Expectation Maximization (OSEM3D) with four iterations, six subsets, and a voxel size of 0.4 mm^3 (Nucline v2.01, Mediso, Hungary). The analysis of reconstructed datasets was performed with PMOD software (v4.103, PMOD Technologies LLC, Zurich, Switzerland). […]

[3] = In vitro stability of the radioligand in saline, PBS and TRIS-HCl buffer; format: physicochemical; conditions: 37 °C
Method: The in vitro stability of [^18F]RM273 was investigated in saline, phosphate-buffered saline (PBS), and TRIS-HCl buffer (50 mM, pH 7.4) at 37 °C for 2 h, and the radioligand remained intact (90%, 94%, and 100%, respectively; saline for 1 h: 95%). The logD7.4 of [^18F]RM273 was experimentally determined by the shake-flask method as 1.78 ± 0.22 (n = 3), which is well within the range of 1–3.5 recommended for brain targeting compounds [43].
In vitro stability of [^18F]RM273 was determined in saline, phosphate-buffered saline (PBS), and TRIS (50 mM, pH 7.4) by incubation of approx. 5 MBq in 500 µL of each medium at 37 °C. Samples were taken after 30, 60, and 120 min and analyzed by analytical radio-HPLC with a gradient system as applied in Section 5.2.2.

- Intact tracer ([1]; Bone Marrow, Mouse 2): 97%
- Intact tracer ([1]; Bone Marrow, Mouse 3): 97%
- Intact tracer ([1]; Brain, Mouse 1): 100%
- Intact tracer ([1]; Brain, Mouse 2): 100%
- Intact tracer ([1]; Brain, Mouse 3): 100%
- Intact tracer ([1]; Liver, Mouse 1): 34%
- Intact tracer ([1]; Liver, Mouse 2): 36%
- Intact tracer ([1]; Liver, Mouse 3): 28%
- Intact tracer ([1]; Pancreas, Mouse 1): 100%
- Intact tracer ([1]; Pancreas, Mouse 2): 96%
- Intact tracer ([1]; Pancreas, Mouse 3): 96%
- Intact tracer ([1]; Plasma, Mouse 1): 23%
- Intact tracer ([1]; Plasma, Mouse 2): 37%
- Intact tracer ([1]; Plasma, Mouse 3): 28%
- intact radioligand in brain ([1]; mice, n = 3): > 99%
- mean standardized uptake value (SUV), whole brain ([2]; 2.25 min p.i., n = 4): 1.3 ± 0.4
- peak-to-endpoint ratio, brain ([2]; 60 min PET): 6.4 ± 0.9
- radioligand remained intact ([3]; TRIS-HCl buffer (50 mM, pH 7.4), 2 h): 100%
- radioligand remained intact ([3]; phosphate-buffered saline (PBS), 2 h): 94%
- radioligand remained intact ([3]; saline, 1 h): 95%
- radioligand remained intact ([3]; saline, 2 h): 90%
SMILES: COc1cc2c(cc1OC)CN(CCCCn1ccc3ccc([18F])nc31)CC2 [[^18F]RM273]
